Here are results for nine compounds from patent US11147792B2, “Inhibitors of microbially induced amyloid” (Axial Therapeutics, Inc, priority 2017, dated 2021).

Assay type in all cases: biochemical
The target of one test is T1, human α-synuclein (Homo sapiens, UniProt P37840).
T1 construct: made in house; host or cells: E. coli
Description: In vitro Thioflavin T assay of α-synuclein aggregation. On the procedure: In Vitro Thioflavin T Assay to Determine the Effects of Compounds on α-Synuclein Aggregation.
The ammonium sulfate pellet was washed with an equal volume of 100 mM ammonium acetate in ethanol, pelleted via centrifugation, washed twice with ethanol, dried overnight, resuspended in 10 mM Tris pH 7.4, and passed through a 50 kDa cut-off column. The assay was conducted in 96-well black microplates with a single 2 mm bead in each well, 40 μM ThioflavinT, 1% DMSO, 50 μM α-synuclein, 100 mM sodium chloride, 9.3 mM potassium phosphate pH 7.3, 4.6 mM Tris pH 7.4 (added as the solvent for α-synuclein or independently for controls lacking α-synuclein), and compounds at 1 μM or 50 μM. […] Readings were performed hourly for up to 73 hours. The effect of compounds on α-synuclein aggregation in the assay was determined with data from 40 hours, following the plateau of the fluorescent signal in the untreated (no compound) control wells containing α-synuclein. Fluorescence values for each compound with α-synuclein were first adjusted by subtracting the average fluorescence of the compound in the absence of α-synuclein.

In test [1] the target is T2, α-synuclein seeded by E. coli CsgA (Homo sapiens, UniProt P37840).
T2 construct: made in house; host or cells: E. coli NEB 3016 slyD::kan (CsgA, pET11d); E. coli (α-synuclein)
Kind of test: In vitro Thioflavin T assay of CsgA-seeded α-synuclein aggregation. How it is done:
In Vitro Thioflavin T Assay to Determine the Effects of Compounds on CsgA-Seeded α-Synuclein Aggregation.
To induce over-expression of CsgA, 0.5 mM IPTG was added to cultures with an optical density at 600 nm (OD600) of 0.8-1, and induced cells were cultured at 37° C. for 1 hour prior to harvest via centrifugation. […] Buffers with imidazole were freshly prepared prior to the protein purification. Purified CsgA was passed through a 30 kDa molecular weight cut-off filter and through a desalting column. All steps of the CsgA purification in the absence of guanidine hydrochloride were conducted in rapid succession with as little delay as possible. […] The ammonium sulfate pellet was washed with an equal volume of 100 mM ammonium acetate in ethanol, pelleted via centrifugation, washed twice with ethanol, dried overnight, resuspended in 10 mM Tris pH 7.4, and passed through a 50 kDa cut-off column. The assay was conducted in 96-well black microplates with a single glass 2 mm bead per well, 40 μM ThioflavinT, 1% DMSO, 2 μM CsgA, 50 μM α-synuclein, 100 mM sodium chloride, 9.3 mM potassium phosphate pH 7.3, and compounds at 50 μM. […] The effect of compounds on CsgA-seeded α-synuclein aggregation in the assay was determined with data from 40 hours, following the plateau of the fluorescent signal in the untreated (no compound) control wells containing CsgA and α-synuclein. Fluorescence values for each compound with CsgA and α-synuclein were first adjusted by subtracting the average fluorescence of the compound in the absence of CsgA and α-synuclein.

In the next test the target is T3, E. coli CsgA (Escherichia coli, UniProt P28307).
T3 construct: made in house; host or cells: E. coli NEB 3016 slyD::kan, pET11d
T3 sequence (P28307 23-151): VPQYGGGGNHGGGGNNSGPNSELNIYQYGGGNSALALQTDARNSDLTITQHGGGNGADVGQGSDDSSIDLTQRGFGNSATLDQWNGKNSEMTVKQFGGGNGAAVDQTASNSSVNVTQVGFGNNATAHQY
Description: In vitro ThioflavinT assay of CsgA aggregation. The following applies: for inhibition at 20 µM / Inhibition of Aggregation CsgA (compound activity range): CsgA at 20 μM, ThT fluorescence at 18 hours; for Inhibition of Aggregation CsgA (compound activity range) / Effect on CsgA aggregation (in words): compounds at 20 μM; for Inhibition of Aggregation CsgA (compound activity range): 20 µM. How it is done:
In Vitro ThioflavinT Assay to Determine Effects of Compounds on CsgA Aggregation.
To assess the effects of compounds on aggregation of E. coli CsgA, a cell-free assay was performed using purified CsgA and Thioflavin T. In the assay, histidine-tagged CsgA was over-expressed in E. coli NEB 3016 slyD::kan cells harboring a pET11d vector containing csgA with the sequence for 6 histidine residues added to the C-terminus and without the Sec signal (amino acid 1-22) sequence. To induce over-expression of CsgA, 0.5 mM isopropyl β-D-1-thiogalactopyranoside (“IPTG”) was added to cultures with an optical density at 600 nm (OD600) of 0.8-1, and induced cells were cultured at 37° C. for 1 hour prior to harvest via centrifugation. Cells were lysed under denaturing conditions with 8 M guanidine hydrochloride in 50 mM potassium phosphate buffer pH 7.3, and CsgA was purified via immobilized-metal affinity chromatography by batch purification with Nickel-NTA agarose and a combination of low pressure and gravity flow through a disposable polypropylene column, including washes under low pressure applied manually via application of a syringe plunger to the column with 50 mM potassium phosphate buffer pH 7.3 followed by 12.5 mM imidazole in 50 mM potassium phosphate buffer pH 7.3, and elution by gravity flow with 125 mM imidazole in 50 mM potassium phosphate buffer pH 7.3. Buffers with imidazole were freshly prepared prior to the protein purification. Purified CsgA was passed through a 30 kDa molecular weight cut-off filter and passed through a desalting column. All steps of the CsgA purification in the absence of guanidine hydrochloride were conducted in rapid succession with as little delay as possible. The assay was conducted in 96-well black microplates with 40 μM ThioflavinT, 1% DMSO, CsgA at 20 μM, and compounds at 20 μM. Plates were incubated at 25° C. in a Tecan Nano F200 plate reader with excitation at 438 nm using a 439 nm filter with a bandwidth of 8 nm, and emission at 495 nm with a 490 nm filter with a bandwidth of 10 nm. During the assay, plates were shaken initially for 5 seconds and subsequently for 3 seconds prior to fluorescent readings. Readings were performed every 20 minutes for up to 24 hours. The effect of compounds on CsgA aggregation in the assay was determined with data from 18 hours, following the plateau of the fluorescent signal in the untreated (no compound) control wells containing CsgA. Fluorescence values for each compound with CsgA were first adjusted by subtracting the average fluorescence of the compound in the absence of CsgA. These adjusted values were normalized by dividing them by the average fluorescence in the no-compound (i.e., untreated) control wells containing CsgA […], and the average normalized fluorescence with the compound was expressed as a percentage of the average fluorescence observed in untreated controls.

Where [2] appears, read: compounds at 50 μM, 50 μM α-synuclein, ThT fluorescence at 40 hours, read-out: Inhibition of Aggregation αSyn.
[3] abbreviates: compounds at 50 μM, 50 μM α-synuclein, ThT fluorescence at 40 hours, read-out: Inhibition of Aggregation αSyn (compound activity range).
Where [4] appears, read: compounds at 50 μM, 2 μM CsgA, 50 μM α-synuclein, ThT fluorescence at 40 hours, read-out: Inhibition of Aggregation CsgA-seeded αSyn.
The mark [5] stands for this setting: read-out: Inhibition of Aggregation CsgA (compound activity range), compounds at 20 μM.
Setting [6] is: read-out: Inhibition of Aggregation CsgA, compounds at 20 μM.
The mark [7] stands for this setting: compounds at 50 μM, 2 μM CsgA, 50 μM α-synuclein, ThT fluorescence at 40 hours, read-out: Inhibition of Aggregation CsgA-seeded αSyn (compound activity range).
[8] abbreviates: read-out: Inhibition of Aggregation αSyn.
[9] abbreviates: read-out: Inhibition of Aggregation αSyn (compound activity range).
[10] abbreviates: read-out: Inhibition of Aggregation CsgA-seeded αSyn.

Like-named read-outs stand apart in the source and are kept apart here.

With `CC(Cc1ccc(O)c(O)c1)C(C)Cc1ccc(O)c(O)c1` (stereo not shown) [NDGA, 4,4′-(2,3-dimethylbutane-1,4-diyl)dibenzene-1,2-diol], the values for the inhibition at 50 µM (on human α-synuclein (setting [2]); on human α-synuclein (setting [3]); in test [1] (setting [4])) were 54%, 30 to 60% and 39%, respectively. Besides, the figures for the inhibition at 20 µM at E. coli CsgA (setting [5]) and at E. coli CsgA (setting [6]) were 10 to 30% and 23%, respectively.
On to `COc1cc(O)ccc1O` [methoxy-hydroquinone, 2-methoxybenzene-1,4-diol], for which the inhibition at 50 µM at human α-synuclein (setting [2]) is 100%; at human α-synuclein (setting [3]), above 60%; in test [1] (setting [4]), 80%. In addition, the “Inhibition of Aggregation CsgA (compound activity range)” value at E. coli CsgA is “(++) to (+++)”. Moreover, the results for the inhibition at 20 µM on E. coli CsgA (setting [5]) and on E. coli CsgA (setting [6]) were 30 to 60% and 50%, respectively.
For `O=C(CCc1ccc(O)cc1)c1c(O)cc(O)cc1O` [phloretin, 3-(4-hydroxyphenyl)-1-(2,4,6-trihydroxyphenyl)propan-1-one], the inhibition at 50 µM at human α-synuclein (setting [2]) is 46%; on human α-synuclein (setting [3]), 30 to 60%; in test [1] (setting [4]), 21%; in test [1] (setting [7]) it was 10 to 30%. For the same compound, the inhibition at 20 µM on E. coli CsgA (setting [5]) was 10 to 30%; at E. coli CsgA (setting [6]), 18%.
`C/C=C/c1ccc(O)c(OC)c1` [isoeugenol, 2-methoxy-4-(prop-1-en-1-yl)phenol]: the “Effect on α-synuclein aggregation (in words)” value on human α-synuclein (compounds at 50 μM) is “without notable inhibition”. For the same compound, the inhibition at 50 µM is 9% on human α-synuclein (setting [2]), -10 to 10% on human α-synuclein (setting [3]), 35% in test [1] (setting [4]) and 30 to 60% in test [1] (setting [7]). The “Effect on CsgA-seeded α-synuclein aggregation (in words)” value in test [1] (compounds at 50 μM) is listed as “demonstrated inhibition”. For the same compound, the “Effect on CsgA aggregation (in words)” value on E. coli CsgA is given as “without notable inhibition”. The inhibition at 20 µM at E. coli CsgA (setting [5]) was -10 to 10%; at E. coli CsgA (setting [6]), -4%.
On to `O=C(O)c1cc(O)c(O)c(O)c1` [gallic acid, 3,4,5-trihydroxybenzoic acid], for which the values for the inhibition at 50 µM (at human α-synuclein (setting [2]); on human α-synuclein (setting [3]); in test [1] (setting [4])) were 99%, above 60% and 63%, respectively. In addition, on E. coli CsgA, the “Inhibition of Aggregation CsgA (compound activity range)” value is listed as “(++) to (+++)”. Besides, the results for the inhibition at 20 µM at E. coli CsgA (setting [5]) and on E. coli CsgA (setting [6]) were above 60% and 82%, respectively.
Consider `CCCCCCCCCCCCOC(=O)c1cc(O)c(O)c(O)c1` [lauryl gallate, dodecyl 3,4,5-trihydroxybenzoate], for which the inhibition at 50 µM on human α-synuclein (setting [2]) is 33%; on human α-synuclein (setting [3]), 30 to 60%; in test [1] (setting [4]), 24%; in test [1] (setting [7]), 10 to 30%. Further, in test [1] (compounds at 50 μM, 2 μM CsgA, 50 μM α-synuclein, ThT fluorescence at 40 hours), the “Inhibition of Aggregation CsgA-seeded αSyn (compound activity range)” value is “+%”. Moreover, the “Effect on CsgA aggregation (in words)” value at E. coli CsgA was “did not appear to inhibit CsgA aggregation”. For the same compound, the inhibition at 20 µM is -10 to 10% at E. coli CsgA (setting [5]) and 1% on E. coli CsgA (setting [6]).
With `C=CCc1ccc(O)c(OC)c1` [eugenol, 2-methoxy-4-(prop-2-en-1-yl)phenol], the “Effect on α-synuclein aggregation (in words)” value at human α-synuclein (compounds at 50 μM) is given as “without notable inhibition”. Besides, the inhibition at 50 µM at human α-synuclein (setting [8]) was -1%; at human α-synuclein (setting [9]), -10 to 10%; in test [1] (setting [10]), 42%; in test [1] (read-out: Inhibition of Aggregation CsgA-seeded αSyn (compound activity range)) it was 30 to 60%. In addition, the “Effect on CsgA-seeded α-synuclein aggregation (in words)” value in test [1] (compounds at 50 μM) is listed as “demonstrated inhibition”. The “Effect on CsgA aggregation (in words)” value at E. coli CsgA is “without notable inhibition”. For the same compound, the inhibition at 20 µM on E. coli CsgA (setting [6]) is -10%.
Take `Cc1ccc(C(C)C)cc1O` [carvacrol, 2-methyl-5-(propan-2-yl)phenol]: the inhibition at 50 µM was 2% on human α-synuclein (setting [8]), -10 to 10% at human α-synuclein (setting [9]) and -2% in test [1] (setting [10]). In addition, the “Inhibition of Aggregation CsgA (compound activity range)” value at E. coli CsgA is “− ((−) is between −10% to 10% inhibition)”. The inhibition at 20 µM at E. coli CsgA (setting [6]) was -20%.
On to `Cc1ccc(C(C)C)c(O)c1` [thymol, 5-methyl-2-(propan-2-yl)phenol], for which the inhibition at 50 µM was -21% on human α-synuclein (setting [8]), below -10% at human α-synuclein (setting [9]), 9% in test [1] (setting [4]) and -10 to 10% in test [1] (setting [7]). In addition, the “Effect on CsgA-seeded α-synuclein aggregation (in words)” value in test [1] (compounds at 50 μM) is listed as “little to no effect”. In addition, the “Effect on CsgA aggregation (in words)” value at E. coli CsgA was “little to no effect”. For the same compound, the inhibition at 20 µM at E. coli CsgA (setting [5]) was -10 to 10%; at E. coli CsgA (setting [6]) it was -4%.

A word on the inhibition: it is the relative decrease from the control value, in per cent.
